{"source": "paper PMC7226613", "about": "“Antikinetoplastid Activity of Indolocarbazoles from Streptomyces sanyensis” (Biomolecules, 2020)", "key": {"[1]": {"assay": "Cytotoxicity assay (AlamarBlue)", "conditions": "mouse"}, "[2]": {"system": "epimastigote of T. cruzi (Y strain)", "assay": "Trypanocidal capacity assay, epimastigotes (AlamarBlue)", "conditions": "72 h; for IC50: Trypanosoma cruzi, read-out: T. cruzi IC50; for T. cruzi IC50: epimastigotes, mean ± SD"}, "[3]": {"system": "promastigotes of L. amazonensis (MHOM/BR/77/LTB0016)", "assay": "Leishmanicidal capacity assay, promastigotes (AlamarBlue)", "format": "cell-based, Leishmania amazonensis", "conditions": "for IC50 / L. amazonensis IC50: promastigotes, 72 h, mean ± SD"}, "[4]": {"system": "promastigotes of L. donovani (MHOM/IN/90/GE1F8R)", "assay": "Leishmanicidal capacity assay, promastigotes (AlamarBlue)", "format": "cell-based, Leishmania donovani", "conditions": "72 h, mean ± SD; for IC50: Leishmania donovani"}, "[5]": {"system": "macrophage J774A.1 cell line"}, "[6]": {"assay": "in vitro", "conditions": "mouse"}, "[7]": {"system": "macrophage J774A.1 cell line", "assay": "Cytotoxicity assay (AlamarBlue)", "conditions": "24 h, AlamarBlue, mean ± SD"}, "[8]": {"molecular_target": "phosphorylase kinase", "conditions": "cited from earlier work"}, "[9]": {"molecular_target": "protein kinase A (PKA)", "conditions": "cited from earlier work"}, "[10]": {"system": "L. amazonensis amastigotes", "assay": "Anti-amastigote activity, intra-macrophage stage in J774A.1", "conditions": "for IC50: Leishmania amazonensis, J774.A1, read-out: L. Amazonensis Amastigotes IC50; for Selectivity Index (CC50/IC50): CC50 J774A.1 / IC50 L. amazonensis amastigotes"}, "[11]": {"system": "L. amazonensis promastigotes", "assay": "Mitochondrial membrane potential (JC-1)", "format": "cell-based, Leishmania amazonensis", "conditions": "IC90 (8.36 µM), 24 h", "procedure": "(§1) The decrease in the mitochondrial membrane potential was detected using a JC-1 Mitochondrial Membrane, Potential Assay Kit, Cayman Chemical. […] The pellet was resuspended in JC-1 buffer. After that, 100 µL of each treated culture was added to a black 96-well plate (PerkinElmer) and 10 µL of JC-1 was added, and the plate was incubated for half an hour at 26 °C. Green and red fluorescence intensity was measured using an Enspire microplate reader (PerkinElmer, Massachusetts, USA) for 30 min. In addition, the depolarization of the mitochondrial membrane potential was confirmed by microscopic observation using EVOS FL Cell Imaging System AMF4300, Life Technologies, USA."}, "[12]": {"system": "L. donovani promastigotes", "assay": "Mitochondrial membrane potential (JC-1)", "format": "cell-based, Leishmania donovani", "conditions": "IC90, 24 h", "procedure": "as §1"}, "[13]": {"system": "T. cruzi epimastigotes", "assay": "Mitochondrial membrane potential (JC-1)", "format": "cell-based, Trypanosoma cruzi", "conditions": "IC90, 24 h", "procedure": "as §1"}, "[14]": {"system": "L. amazonensis", "assay": "Plasma membrane permeability (SYTOX Green)", "format": "cell-based, Leishmania amazonensis", "conditions": "IC90, 24 h", "procedure": "(§2) The SYTOX® Green assay was performed to detect the membrane permeability alterations in parasites. […] SYTOX® Green was added at a final concentration of 1 μM (Molecular Probes)."}, "[15]": {"system": "L. donovani", "assay": "Plasma membrane permeability (SYTOX Green)", "format": "cell-based, Leishmania donovani", "conditions": "IC90, 24 h", "procedure": "as §2"}, "[16]": {"system": "T. cruzi", "assay": "Plasma membrane permeability (SYTOX Green)", "format": "cell-based, Trypanosoma cruzi", "conditions": "IC90, 24 h", "procedure": "as §2"}, "[17]": {"system": "promastigotes of L. donovani", "assay": "Microscopic morphology of treated promastigotes", "format": "cell-based, Leishmania donovani", "conditions": "10 µM; flagellar pocket increased, invagination of plasma membrane"}, "[18]": {"system": "protein kinase C (PKC)", "conditions": "cited from earlier work"}}, "note": "Read-outs that look alike come from different tables or passages of the source."}
{"smiles": "O=C(Cn1ccnc1[N+](=O)[O-])NCc1ccccc1", "note": "[Benznidazole]", "values": [{"measurement": "CC50 at 24 h", "setting": "[1]; J774A.1 macrophage cell line", "value": "400 ± 4", "unit": "µM"}, {"measurement": "IC50", "setting": "[2]", "value": "6.94 ± 1.94", "unit": "µM"}]}
{"smiles": "O=C1NC(=O)c2c1c1c3ccccc3[nH]c1c1[nH]c3ccccc3c21", "note": "[Compound 9, arcyriaflavin A]", "values": [{"measurement": "IC50", "setting": "[3]; Leishmania amazonensis", "value": "> 40", "unit": "µM"}, {"measurement": "L. amazonensis IC50", "setting": "[3]", "value": "completely inactive"}, {"measurement": "L. donovani IC50", "setting": "[4]", "value": "completely inactive"}, {"measurement": "IC50", "setting": "[4]", "value": "> 40", "unit": "µM"}, {"measurement": "Macrophage J774A.1 CC50", "setting": "[5]", "value": "low toxicity"}, {"measurement": "CC50 at 24 h", "setting": "[6]", "value": "> 40", "unit": "µM"}, {"measurement": "IC50", "setting": "[2]", "value": "> 40", "unit": "µM"}, {"measurement": "T. cruzi IC50", "setting": "[2]", "value": "completely inactive"}]}
{"smiles": "O=C1NCc2c1c1c3ccccc3[nH]c1c1[nH]c3ccccc3c21", "note": "[Compound 8, K252c]", "values": [{"measurement": "IC50", "setting": "[3]; Leishmania amazonensis", "value": "> 40", "unit": "µM"}, {"measurement": "L. amazonensis IC50", "setting": "[3]", "value": "completely inactive"}, {"measurement": "L. donovani IC50", "setting": "[4]", "value": "completely inactive"}, {"measurement": "IC50", "setting": "[4]", "value": "> 40", "unit": "µM"}, {"measurement": "CC50 at 24 h", "setting": "[1]; J774A.1 macrophage cell line", "value": "35.4 ± 2.47", "unit": "µM"}, {"measurement": "Macrophage J774A.1 CC50", "setting": "[7]", "value": "low toxicity"}, {"measurement": "IC50", "setting": "[2]", "value": "> 40", "unit": "µM"}, {"measurement": "T. cruzi IC50", "setting": "[2]", "value": "completely inactive"}]}
{"smiles": "COC(=O)[C@@]1(O)C[C@H]2O[C@]1(C)n1c3ccccc3c3c4c(c5c6ccccc6n2c5c31)C(=O)NC4", "note": "[Compound 6, K252a]", "values": [{"measurement": "IC50", "setting": "[3]; Leishmania amazonensis", "value": "5.9 ± 0.96", "unit": "µM"}, {"measurement": "IC50", "setting": "[4]", "value": "8.09 ± 1.12", "unit": "µM"}, {"measurement": "IC50", "setting": "[8]", "value": 0.0017, "unit": "µM"}, {"measurement": "IC50", "setting": "[9]", "value": 0.14, "unit": "µM"}, {"measurement": "CC50 at 24 h", "setting": "[1]", "value": "1.07 ± 0.21", "unit": "µM"}, {"measurement": "IC50", "setting": "[2]", "value": "4 ± 0.24", "unit": "µM"}]}
{"smiles": "COC1=C(C)O[C@@H]2C[C@@]1(OC)n1c3ccccc3c3c4c(c5c6ccccc6n2c5c31)C(=O)NC4", "note": "[Compound 4, streptocarbazole B]", "values": [{"measurement": "IC50", "setting": "[3]; Leishmania amazonensis", "value": "10.4 ± 0.21", "unit": "µM"}, {"measurement": "IC50", "setting": "[4]", "value": "> 40", "unit": "µM"}, {"measurement": "CC50 at 24 h", "setting": "[1]; J774A.1 macrophage cell line", "value": "> 40", "unit": "µM"}, {"measurement": "Macrophage J774A.1 CC50", "setting": "[7]", "value": "low toxicity"}, {"measurement": "IC50", "setting": "[2]", "value": "12.5 ± 2.06", "unit": "µM"}, {"measurement": "IC50", "setting": "[10]", "value": "2.47 ± 0.09", "unit": "µM"}]}
{"smiles": "C[C@]12O[C@H](C[C@]1(O)C(=O)O)n1c3ccccc3c3c4c(c5c6ccccc6n2c5c31)CNC4=O", "note": "[Compound 7, K252b]", "values": [{"measurement": "IC50", "setting": "[3]; Leishmania amazonensis", "value": "20.6 ± 4.5", "unit": "µM"}, {"measurement": "IC50", "setting": "[4]", "value": "4.45 ± 0.71", "unit": "µM"}, {"measurement": "Macrophage J774A.1 CC50", "setting": "[5]", "value": "low toxicity"}, {"measurement": "CC50 at 24 h", "setting": "[6]", "value": "> 40", "unit": "µM"}, {"measurement": "IC50", "setting": "[2]", "value": "7.41 ± 0.93", "unit": "µM"}]}
{"smiles": "CN[C@@H]1C[C@H]2O[C@@](C)([C@@H]1OC)n1c3ccccc3c3c4c(c5c6ccccc6n2c5c31)C(=O)NC4", "note": "[Compound 1, staurosporine]", "values": [{"measurement": "CC50", "setting": "[7]; read-out: Macrophage J774A.1 CC50", "value": "8.74 ± 0.72", "unit": "µM"}, {"measurement": "IC50", "setting": "[2]", "value": "3.63 ± 0.77", "unit": "µM"}]}
{"smiles": "CN[C@@H]1C[C@H]2O[C@@](C)([C@@H]1OC)n1c3ccccc3c3c4c(c5c6ccccc6n2c5c31)C(=O)NC4=O", "note": "[Compound 2, 7-oxostaurosporine]", "values": [{"measurement": "IC50", "setting": "[3]; Leishmania amazonensis", "value": "3.58 ± 1.1", "unit": "µM"}, {"measurement": "IC90", "setting": "[3]; Leishmania amazonensis, read-out: IC90 concentration, L. amazonensis promastigotes", "value": 8.36, "unit": "µM"}, {"measurement": "IC50", "setting": "[4]", "value": "0.56 ± 0.06", "unit": "µM"}, {"measurement": "effect on mitochondrial membrane potential (ΔΨm)", "setting": "[11]", "value": "intense effect"}, {"measurement": "effect on mitochondrial membrane potential (ΔΨm)", "setting": "[12]", "value": "did not observe any change"}, {"measurement": "effect on mitochondrial membrane potential (ΔΨm)", "setting": "[13]", "value": "did not observe any change"}, {"measurement": "cytoplasmic membrane permeability", "setting": "[14]", "value": "does not seem to be permeable"}, {"measurement": "cytoplasmic membrane permeability", "setting": "[15]", "value": "remarkable membrane alteration"}, {"measurement": "cytoplasmic membrane permeability", "setting": "[16]", "value": "remarkable membrane alteration"}, {"measurement": "morphological changes of parasites", "setting": "[17]", "value": "morphological changes"}, {"measurement": "CC50 at 24 h", "setting": "[1]", "value": "5.2 ± 1.75", "unit": "µM"}, {"measurement": "IC50", "setting": "[2]", "value": "1.58 ± 0.52", "unit": "µM"}, {"measurement": "Selectivity Index (CC50/IC50)", "setting": "[10]", "value": 52}, {"measurement": "IC50", "setting": "[10]", "value": 0.1, "unit": "µM"}]}
{"smiles": "CO[C@H]1[C@H](O)[C@@H](O)[C@H](n2c3c(Cl)cccc3c3c4c(c5c6cccc(Cl)c6[nH]c5c32)C(=O)NC4=O)O[C@@H]1CO", "note": "[Compound 5, rebeccamycin]", "values": [{"measurement": "IC50", "setting": "[3]; Leishmania amazonensis", "value": "> 40", "unit": "µM"}, {"measurement": "L. amazonensis IC50", "setting": "[3]", "value": "completely inactive"}, {"measurement": "L. donovani IC50", "setting": "[4]", "value": "completely inactive"}, {"measurement": "IC50", "setting": "[4]", "value": "> 40", "unit": "µM"}, {"measurement": "inhibitory effect on PKC", "setting": "[18]", "value": "no inhibitory effect"}, {"measurement": "CC50 at 24 h", "setting": "[1]; J774A.1 macrophage cell line", "value": "1.42 ± 0.19", "unit": "µM"}, {"measurement": "IC50", "setting": "[2]", "value": "> 40", "unit": "µM"}, {"measurement": "T. cruzi IC50", "setting": "[2]", "value": "completely inactive"}]}
{"smiles": "CCCCCCCCCCCCCCCCOP(=O)([O-])OCC[N+](C)(C)C", "note": "[Miltefosine]", "values": [{"measurement": "IC50", "setting": "[4]", "value": "3.32 ± 0.27", "unit": "µM"}, {"measurement": "CC50 at 24 h", "setting": "[1]; J774A.1 macrophage cell line", "value": "72.2 ± 3.06", "unit": "µM"}, {"measurement": "Selectivity Index (CC50/IC50)", "setting": "[10]", "value": 23}]}
{"smiles": "CO[C@@H]1C(=O)C[C@H]2O[C@]1(C)n1c3ccccc3c3c4c(c5c6ccccc6n2c5c31)C(=O)NC4", "note": "[Compound 3, 4′-demethylamino-4′-oxostaurosporine]", "values": [{"measurement": "IC50", "setting": "[3]; Leishmania amazonensis", "value": "17.1 ± 4.78", "unit": "µM"}, {"measurement": "IC50", "setting": "[4]", "value": "> 40", "unit": "µM"}, {"measurement": "CC50 at 24 h", "setting": "[1]; J774A.1 macrophage cell line", "value": "> 40", "unit": "µM"}, {"measurement": "Macrophage J774A.1 CC50", "setting": "[7]", "value": "low toxicity"}, {"measurement": "IC50", "setting": "[2]", "value": "17.1 ± 1.64", "unit": "µM"}, {"measurement": "IC50", "setting": "[10]", "value": "2.03 ± 0.27", "unit": "µM"}]}
